# From patent US8586603B2, “Aminotetraline derivatives” (priority 2009, dated 2013)
# Where “and” joins values, the source holds several entries; their conditions need not be identical. Identical values can stand only once. Like-named read-outs stand apart in the source and are kept apart here.
# Assays:
# [1] = molecular target: T1, porcine cortical pα1 adrenergic receptor; experiment: Receptor binding assay, [3H]prazosin competition, porcine cortical membranes; details: means of 2-8 individual experiments each done as triplicate
# T1 construct: Ki pα1; other: means of 2-8 individual experiments each done as triplicate
# [2] = system: porcine cortical pα1 adrenergic receptor; experiment: as above; details: vs p5-HT1a
# [3] = molecular target: T2, human dopamine receptor subtype hD4.4 (Homo sapiens, UniProt P21917); experiment: Receptor binding assay, [3H]spiperone competition, CHO cell membranes; details: for Ki: means of 2-8 individual experiments each done as triplicate; for selectivity ratio hD4.4: vs p5-HT1a
# T2 construct: expressed in transfected cells; host or cells: CHO
# T2 sequence (P21917 1-419): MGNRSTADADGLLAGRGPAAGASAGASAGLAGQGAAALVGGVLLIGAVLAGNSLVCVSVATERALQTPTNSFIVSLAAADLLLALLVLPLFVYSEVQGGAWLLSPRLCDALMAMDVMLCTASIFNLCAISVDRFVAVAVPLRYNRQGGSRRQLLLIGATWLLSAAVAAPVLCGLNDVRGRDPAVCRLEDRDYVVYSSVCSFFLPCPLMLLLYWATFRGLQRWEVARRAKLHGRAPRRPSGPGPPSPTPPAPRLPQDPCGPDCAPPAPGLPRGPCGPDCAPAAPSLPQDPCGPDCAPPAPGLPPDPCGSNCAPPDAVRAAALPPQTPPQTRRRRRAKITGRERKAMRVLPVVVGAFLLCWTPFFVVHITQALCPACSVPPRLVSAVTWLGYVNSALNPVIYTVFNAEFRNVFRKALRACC
# Method: Receptor binding data were determined when performing competition binding assays with membrane preparations of cloned cells (stably transfected Chinese Hamster Ovary cells (CHO)) expressing the human receptors and the following radioligands: [^3H]spiperone at the human dopamine receptor subtypes hD2long, hD2short, D3, and hD4.4. […].
# (§1) Selectivity ratios were calculated by division of the Ki values of the various compounds at the respective receptors through the Ki values at the 5HT1a receptor.
# [4] = molecular target: T3, human dopamine receptor subtype hD2long (Homo sapiens, UniProt P14416); experiment: as above; details: for Ki: means of 2-8 individual experiments each done as triplicate; for selectivity ratio hD2long: vs p5-HT1a
# T3 construct: expressed in transfected cells; host or cells: CHO
# Method: (§2) Receptor binding data were determined when performing competition binding assays with membrane preparations of cloned cells (stably transfected Chinese Hamster Ovary cells (CHO)) expressing the human receptors and the following radioligands: [^3H]spiperone at the human dopamine receptor subtypes hD2long, hD2short, D3, and hD4.4.
# as §1
# [5] = molecular target: T4, human dopamine receptor subtype hD2short (Homo sapiens, UniProt P14416); experiment: as above; details: for Ki: means of 2-8 individual experiments each done as triplicate; for selectivity ratio hD2short: vs p5-HT1a
# T4 construct: expressed in transfected cells; host or cells: CHO
# Method: as §2, §1
# [6] = molecular target: T5, human dopamine receptor subtype hD3 (Homo sapiens, UniProt P35462); experiment: as above; details: for Ki: means of 2-8 individual experiments each done as triplicate; for selectivity ratio hD3: vs p5-HT1a
# T5 construct: expressed in transfected cells; host or cells: CHO
# Method: as §2, §1
# [7] = molecular target: T6, porcine cortical p5-HT1a serotonin receptor (Sus scrofa, UniProt A0A4X1UTF5); experiment: Receptor binding assay, [3H]WAY100635 competition, porcine cortical membranes; details: for Ki: means of 2-8 individual experiments each done as triplicate; for selectivity ratio p5-HT1a: reference receptor of the ratio (=1)
# T6 construct: membrane homogenates prepared from porcine striatal or cortical tissue; from tissue; host or cells: porcine cortex
# T6 sequence (A0A4X1UTF5 1-422): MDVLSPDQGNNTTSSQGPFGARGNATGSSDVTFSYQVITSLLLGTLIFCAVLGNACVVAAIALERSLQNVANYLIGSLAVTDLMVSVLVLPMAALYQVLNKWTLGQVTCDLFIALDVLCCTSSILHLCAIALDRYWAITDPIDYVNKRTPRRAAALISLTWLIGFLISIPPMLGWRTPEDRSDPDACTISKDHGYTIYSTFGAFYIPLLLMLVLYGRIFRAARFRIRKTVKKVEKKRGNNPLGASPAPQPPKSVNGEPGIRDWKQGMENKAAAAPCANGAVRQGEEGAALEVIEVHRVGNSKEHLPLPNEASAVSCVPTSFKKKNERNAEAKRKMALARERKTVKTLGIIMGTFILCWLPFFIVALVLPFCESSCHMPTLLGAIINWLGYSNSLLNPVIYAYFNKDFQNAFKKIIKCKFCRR
# [8] = molecular target: T7, porcine cortical p5-HT2 serotonin receptor (Sus scrofa, UniProt P50129); experiment: Receptor binding assay, [3H]ketanserin competition, porcine cortical membranes; details: for Ki: means of 2-8 individual experiments each done as triplicate; for selectivity ratio p5-HT2: vs p5-HT1a
# T7 construct: membrane homogenates prepared from porcine striatal or cortical tissue; from tissue; host or cells: porcine cortex
# [9] = molecular target: T8, porcine striatal pD1 dopamine receptor (Sus scrofa, UniProt P50130); experiment: Receptor binding assay, [3H]SCH 23390 competition, porcine striatal membranes; details: for Ki: means of 2-8 individual experiments each done as triplicate; for selectivity ratio pD1: vs p5-HT1a
# T8 construct: membrane homogenates prepared from porcine striatal or cortical tissue; from tissue; host or cells: porcine striatum
# [10] = molecular target: porcine cortical pα2 adrenergic receptor; experiment: Receptor binding assay, [3H]RX821002 competition, porcine cortical membranes; details: means of 2-8 individual experiments each done as triplicate
# [11] = molecular target: T9, human 5-HT1a receptor (Homo sapiens, UniProt P08908); experiment: [35S]GTPγS functional assay; format: biochemical; details: for Emax: read-out: intrinsic activity [% rel. to serotonin]
# T9 construct: expressed in transfected cells
# T9 sequence (P08908 1-422): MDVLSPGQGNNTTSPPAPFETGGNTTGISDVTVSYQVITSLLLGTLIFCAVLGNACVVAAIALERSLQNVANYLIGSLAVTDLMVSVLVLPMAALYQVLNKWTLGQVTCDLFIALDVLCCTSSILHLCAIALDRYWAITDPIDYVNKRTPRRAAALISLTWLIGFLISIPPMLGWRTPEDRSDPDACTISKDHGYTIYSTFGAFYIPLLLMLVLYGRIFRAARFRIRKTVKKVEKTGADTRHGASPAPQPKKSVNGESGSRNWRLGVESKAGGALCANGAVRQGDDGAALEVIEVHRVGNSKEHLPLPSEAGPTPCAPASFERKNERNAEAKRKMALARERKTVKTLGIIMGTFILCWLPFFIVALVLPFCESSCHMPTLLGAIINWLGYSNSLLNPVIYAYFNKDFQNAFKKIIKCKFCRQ
# Method: Specific binding of [^35S]GTPγS is stimulated by activation of the stably expressed human 5-HT1a receptor in a dose-dependent way by agonists for this GPCR and is determined by measuring the radioactive label of the membrane. Non-linear regression analysis of the resulting dose-response curves yields the EC50 value in [nM] representing the half maximal concentration which is necessary to activate the receptor completely.
# [12] = mean values of 2-8 individual experiments
# T5 sequence (P35462 whole entry): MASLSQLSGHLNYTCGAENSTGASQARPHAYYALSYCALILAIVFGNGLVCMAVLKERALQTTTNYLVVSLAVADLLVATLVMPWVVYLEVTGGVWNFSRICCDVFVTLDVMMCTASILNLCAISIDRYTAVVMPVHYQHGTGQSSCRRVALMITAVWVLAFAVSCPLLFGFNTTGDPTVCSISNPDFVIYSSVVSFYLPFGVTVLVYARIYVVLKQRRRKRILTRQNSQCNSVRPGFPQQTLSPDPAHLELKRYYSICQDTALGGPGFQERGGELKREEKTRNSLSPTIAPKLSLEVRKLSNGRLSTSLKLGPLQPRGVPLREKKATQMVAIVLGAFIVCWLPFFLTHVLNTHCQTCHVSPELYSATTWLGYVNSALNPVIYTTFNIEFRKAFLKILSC
# T4 sequence (P14416 1-414 isoform P14416-2): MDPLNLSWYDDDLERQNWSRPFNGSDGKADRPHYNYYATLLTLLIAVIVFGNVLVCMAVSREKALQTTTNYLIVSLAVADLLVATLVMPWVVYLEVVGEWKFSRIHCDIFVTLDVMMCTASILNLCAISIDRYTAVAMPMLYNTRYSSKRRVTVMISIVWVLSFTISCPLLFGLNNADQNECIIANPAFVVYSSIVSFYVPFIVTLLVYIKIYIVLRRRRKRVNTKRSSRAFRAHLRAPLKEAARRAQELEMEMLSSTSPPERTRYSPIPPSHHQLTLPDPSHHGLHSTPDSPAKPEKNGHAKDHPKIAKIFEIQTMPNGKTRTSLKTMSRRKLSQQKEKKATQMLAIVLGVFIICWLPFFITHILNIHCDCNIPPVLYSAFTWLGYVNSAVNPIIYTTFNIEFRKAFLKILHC
# T7 sequence (P50129 whole entry): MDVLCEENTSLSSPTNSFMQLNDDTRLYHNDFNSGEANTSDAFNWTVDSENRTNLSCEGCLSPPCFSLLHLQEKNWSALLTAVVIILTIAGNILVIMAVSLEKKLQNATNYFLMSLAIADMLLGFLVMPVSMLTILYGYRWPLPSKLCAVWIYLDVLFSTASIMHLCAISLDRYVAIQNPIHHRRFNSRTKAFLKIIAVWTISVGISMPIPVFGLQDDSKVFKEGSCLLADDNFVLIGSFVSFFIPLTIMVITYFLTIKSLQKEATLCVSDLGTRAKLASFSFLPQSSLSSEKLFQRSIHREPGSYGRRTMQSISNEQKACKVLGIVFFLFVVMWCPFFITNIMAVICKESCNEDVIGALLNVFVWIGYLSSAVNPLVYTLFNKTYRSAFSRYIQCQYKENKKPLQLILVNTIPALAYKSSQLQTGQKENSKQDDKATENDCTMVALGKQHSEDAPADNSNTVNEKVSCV
# T3 sequence (P14416 whole entry): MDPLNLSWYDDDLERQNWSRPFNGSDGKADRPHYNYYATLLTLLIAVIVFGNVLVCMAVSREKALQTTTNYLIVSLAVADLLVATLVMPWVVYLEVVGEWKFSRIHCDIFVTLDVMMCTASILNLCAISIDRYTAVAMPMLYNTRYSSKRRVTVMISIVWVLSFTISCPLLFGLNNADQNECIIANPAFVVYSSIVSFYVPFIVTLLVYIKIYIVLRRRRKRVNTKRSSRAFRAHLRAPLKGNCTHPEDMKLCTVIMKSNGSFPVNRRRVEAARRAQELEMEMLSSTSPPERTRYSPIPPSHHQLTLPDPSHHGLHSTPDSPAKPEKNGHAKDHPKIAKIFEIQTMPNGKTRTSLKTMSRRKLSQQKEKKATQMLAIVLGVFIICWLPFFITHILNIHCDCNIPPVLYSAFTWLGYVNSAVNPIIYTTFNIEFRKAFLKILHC
# T8 sequence (P50130 whole entry): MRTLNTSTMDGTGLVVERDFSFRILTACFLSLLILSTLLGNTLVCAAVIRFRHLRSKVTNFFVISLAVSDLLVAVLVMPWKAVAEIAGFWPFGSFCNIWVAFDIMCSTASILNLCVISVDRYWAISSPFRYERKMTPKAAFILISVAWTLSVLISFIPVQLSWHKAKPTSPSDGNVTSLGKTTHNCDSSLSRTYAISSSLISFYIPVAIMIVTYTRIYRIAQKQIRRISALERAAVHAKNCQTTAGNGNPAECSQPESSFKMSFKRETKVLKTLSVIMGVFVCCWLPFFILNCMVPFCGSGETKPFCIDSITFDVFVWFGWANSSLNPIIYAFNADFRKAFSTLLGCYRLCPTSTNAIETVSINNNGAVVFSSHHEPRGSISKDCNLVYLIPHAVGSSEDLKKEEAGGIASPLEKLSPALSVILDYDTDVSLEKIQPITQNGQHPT
Compound,Ki [1] [nM],selectivity ratio pα1 [2],Ki [3] [nM],selectivity ratio hD4.4 [3],Ki [4] [nM],selectivity ratio hD2long [4],Ki [5] [nM],selectivity ratio hD2short [5],Ki [6] [nM],selectivity ratio hD3 [6],Ki [7] [nM],selectivity ratio p5-HT1a [7],Ki [8] [nM],selectivity ratio p5-HT2 [8],Ki [9] [nM],selectivity ratio pD1 [9],Ki [10] [nM],"EC50 [11, 12]",Emax [11] [%],further results
"CCCN(CCc1cc(C)ccc1C)C1CCc2cccc(O)c2C1 (stereo not drawn) [Compound 7, N-[2-(2,5-Dimethylphenyl)ethyl]-N-(8-hydroxytetralin-2-yl)-N-propylamine]",78,46,490,290,140,82,90,53,130,76,1.7,1,1700,1 000,2400,1 400,–,–,–,melting point: 102 °C
"CCCN(CCc1ccccc1)C1CCc2cccc(OC)c2C1 (stereo not drawn) [Compound 4, N-(8-Methoxytetralin-2-yl)-N-(2-phenylethyl)-N-propylamine]",190,–,530,–,330,–,230,–,51,–,2.5,–,4200,–,7300,–,60,–,–,–
"CCCN(CCc1cccs1)[C@@H]1CCc2cccc(OC)c2C1 [Compound 2a, (R)—N-(8-Methoxytetralin-2-yl)-N-propyl-N-[2-(2-thienyl)ethyl]amine]",140,–,880,–,750,–,840,–,230,–,7.3,–,6000,–,5200,–,64,1.1 nM,82,–
N-(2-Adamantylethyl)-N-(8-hydroxytetralin-2-yl)-N-propylamine [Compound 9],570,160,350,100,16,4.6,12,3.4,39,11,3.5,1,1600,1600,2600,740,–,–,–,EC50 [11]: 1.9 nM; intrinsic activity [% rel. to serotonin] ([11]; [35S]GTPγS incorporation relative to serotonin (=100%)): 88%
"CCCN(CCc1cccs1)[C@@H]1CCc2cccc(O)c2C1 [Compound 1a, (R)—N-(8-Hydroxytetralin-2-yl)-N-propyl-N-[2-(2-thienyl)ethyl]amine]",640,1 200,100,190,240,460,260,500,100,190,0.52,1,2500,4 800,8800,17 000,56,0.65 to 1.9 nM and 0.65 nM,103,agonist activity at the human 5-HT1a receptor ([11]; in words): full agonist activity
